Assay results as given in patent publication US9340505B2, “Type III secretion inhibitors, analogs and uses thereof” (priority 2007, dated 2016).
Entries after “also recorded” stand apart in the source; their conditions may differ. Read-outs that look alike come from different tables or passages of the source.

How the values were obtained:
bacterial T3S = details: cited from earlier work
[1] = test system: T3S mediated cytotoxic response of HeLa cells infected by Y. pestis
YopE-B1a secretion = assay: microbe, parasite or virus in culture; assay type: cell-based, Y. pestis; details: for IC50 / inhibition at 60 µM: Yersinia pestis
YopH secretion = assay type: cell-based, Y. pestis
HeLa cells = assay: Cytotoxicity of compounds, Lactate Dehydrogenase (LDH) assay; details: 60 μM
[2] = test system: YopE-B1a translocation to HeLa cells; assay: cells; assay type: cell-based, Y. pestis
secretion of Yops = assay type: cell-based, Y. pestis
Y. pestis = assay type: cell-based
Y. pestis JG401 = assay type: cell-based
T3S = details: read-out: IC50 as T3S inhibitor in Y. pseudotuberculosis; cited from earlier work
[3] = read-out: IC50 (μM) of YopE secretion, round 3 lead 1 analogs
[4] = read-out: IC50 of YopE secretion (Table 13)
[5] = read-out: Mean Inhibition (%) (3rd round compound 3 analogs)

## CCCCCCCCC[C@H](CCCCCCCC(C)=O)O[C@@H]1O[C@H](CO)[C@@H](O)[C@H](O)[C@H]1O[C@@H]1O[C@H](CO[C@@H]2O[C@H](C)[C@H](O)[C@H](O)[C@@H]2O)[C@@H](OC(C)=O)[C@H](OC(=O)CCC)[C@H]1O[C@@H]1O[C@@H](C)[C@H](O)[C@@H](O)[C@@H]1O [Caminoside A]
Bacterial T3S
  activity in screen for bacterial T3S inhibitors: potent activity

## Cl.O=C(Nc1cccc(Cl)c1)Nc1cccc(C2=NCCN2)c1 [Compound 1, 1-(3-chlorophenyl)-3-(3-(4,5-dihydro-1H-imidazol-2-yl)phenyl) urea hydrochloride]
[1]
  inhibition of T3S mediated cytotoxic response (morphological change): inhibited the cytotoxic response

## Cc1ccc(CSc2nc(C(=O)O)ccc2C#N)cc1 [Compound 1, 2-Pyridinecarboxylic acid, 5-cyano-6-[[(4-methylphenyl)methyl]thio]-]
YopE-B1a secretion; [3]
  IC50: < 15 µM
YopE-B1a secretion; [4]
  IC50: > 60 µM

## Oc1ccc(Oc2ccc(O)cc2)cc1 [Compound 2-3]
YopH secretion
  activity against YopH secretion (in words): showed activity
  concentration dependent T3S inhibition (in words): retained inhibitory activity
HeLa cells
  cytotoxicity of analogs to HeLa cells (in words): significant decrease in cytotoxicity; also recorded: overcame the cytotoxicity

## Nc1cc(Oc2ccc(O)c(N)c2)ccc1O [Compound 2-4]
HeLa cells
  cytotoxicity of analogs to HeLa cells (in words): significant decrease in cytotoxicity

## CCC(=O)O.CCC(=O)O.O=C(Nc1cccc(C2=NCCN2)c1)Nc1cccc(C2=NCCN2)c1 [Compound 3 dipropionate, propanoic acid, compd. with N,N′-bis[3-(4,5-dihydro-1H-imidazol-2-yl)phenyl]urea (2:1)]
[2]; 80 μM
  inhibition of YopE-B1a translocation (in words): completely inhibited
[2]; Yersinia pestis, HeLa, 40 μM
  inhibition at 40 µM: 50%

## Cl.N#Cc1cccc(NC(=O)Nc2cccc(C3=NCCN3)c2)c1 [Compound 3]
[1]
  inhibition of T3S mediated cytotoxic response (morphological change): inhibited the cytotoxic response

## CC(=O)c1ccc(NC(=O)Nc2cccc(C3=NCCN3)c2)cc1.Cl [Compound 4, 1-(4-acetylphenyl)-3-(3-(4,5-dihydro-1H-imidazol-2-yl)phenyl)urea hydrochloride]
[1]
  inhibition of T3S mediated cytotoxic response (morphological change): inhibited the cytotoxic response

## Cc1ccc(-c2nn(-c3ccccc3)cc2C2CC(c3cccs3)=NN2C(=O)CCC(=O)O)cc1 (centres unmarked) [Compound 4-5]
YopH secretion
  activity against YopH secretion (in words): showed activity

## Cc1ccc(-c2nn(-c3ccccc3)cc2C2CC(c3ccccc3)=NN2C(=O)CCC(=O)O)cc1 (centres unmarked) [Compound 4-6]
YopH secretion
  activity against YopH secretion (in words): showed activity

## O=C(N/N=C/c1cc(Br)cc(Br)c1O)c1ccc([N+](=O)[O-])cc1 [INP0007]
Secretion of Yops
  inhibition of secretion of Yops (in words): inhibited secretion of Yops
Y. pestis
  inhibition of Y. pestis growth: completely inhibited
Y. pestis JG401
  promotion of Y. pestis growth at 37° C. in the absence of Ca2+: did not promote the growth
T3S
  IC50: 50 µM

## N#Cc1ccc(C(=O)O)nc1SCc1ccc(Cl)cc1 [MC1_1-1, 6-(4-chlorobenzylthio)-5-cyanopicolinic acid]
YopE-B1a secretion; [4]
  IC50: 20 µM

## N#Cc1ccc(C(=O)O)nc1SCc1ccccc1 [MC1_1-2, 6-(benzylthio)-5-cyanopicolinic acid]
YopE-B1a secretion; [4]
  IC50: 60 µM

## COc1ccc(CSc2nc(C(=O)O)ccc2C#N)cc1 [MC1_1-3, 5-cyano-6-(4-methoxybenzylthio) picolinic acid]
YopE-B1a secretion; [4]
  IC50: > 60 µM

## N#Cc1ccc(C(=O)O)nc1SCc1cccc([N+](=O)[O-])c1 [MC1_1-4, 5-cyano-6-(3-nitrobenzylthio) picolinic acid]
YopE-B1a secretion; [4]
  IC50: > 60 µM

## N#Cc1ccc(C(=O)O)nc1SCc1ccccc1Cl [MC1_1-5, 6-(2-chlorobenzylthio)-5-cyanopicolinic acid]
YopE-B1a secretion; [4]
  IC50: ≥ 60 µM

## N#Cc1ccc(C(=O)O)nc1SCc1ccc(C(F)(F)F)cc1 [MC1_1-8]
YopE-B1a secretion; [4]
  IC50: 55 µM

## N#Cc1ccc(C(=O)O)nc1SCc1ccc(OC(F)(F)F)cc1 [MC1_1-9, 5-cyano-6-(4-(trifluoromethoxy)benzylthio) picolinic acid]
YopE-B1a secretion; [4]
  IC50: 30 µM

## N#Cc1ccc(C(=O)O)nc1Sc1ccc(Cl)cc1 [MC1_2-3, 6-(4-chlorophenylthio)-5-cyanopicolinic acid]
YopE-B1a secretion; read-out: IC50 (μM) of YopE secretion, 2nd round compound 1 analogs
  IC50: < 15 µM
YopE-B1a secretion; 60 μM, read-out: Mean Inhibition (%) of YopE-B1a secretion (Table 14)
  inhibition at 60 µM: 95.9%
YopE-B1a secretion; 60 μM, read-out: inhibition on YopE-B1a secretion
  inhibition at 60 µM: ~95%

## CNC(=O)c1ccc(C#N)c(SCc2ccc(Cl)cc2)n1 [MC1_3-1]
YopE-B1a secretion
  inhibitory activity on YopE-B1a secretion (in words): showed inhibitory activity
YopE-B1a secretion; [3]
  IC50: < 15 µM

## COC(=O)c1ccc(C#N)c(SCc2ccc(Cl)cc2)n1 [MC1_3-2]
YopE-B1a secretion
  inhibitory activity on YopE-B1a secretion (in words): showed inhibitory activity
YopE-B1a secretion; [3]
  IC50: 20 ± 5 µM

## N#Cc1ccc(C(N)=O)nc1SCc1ccc(Cl)cc1 [MC1_3-3]
YopE-B1a secretion
  inhibitory activity on YopE-B1a secretion (in words): showed inhibitory activity
YopE-B1a secretion; [3]
  IC50: 50 ± 5 µM

## O=C(Nc1cccc(C2=NCCN2)c1)Nc1cccc([N+](=O)[O-])c1 [MC3_1-2]
YopH secretion
  activity against YopH secretion (in words): showed inhibition
  concentration dependent T3S inhibition (in words): concentration dependent inhibitory activities

## N#Cc1cccc(NC(=O)Nc2cccc(C3=NCCN3)c2)c1 [MC3_1-3]
YopH secretion
  concentration dependent T3S inhibition (in words): concentration dependent inhibitory activities

## O=C(Nc1cccc(C2=NCCN2)c1)Nc1cccc(C(F)(F)F)c1 [MC3_1-9]
YopH secretion
  concentration dependent T3S inhibition (in words): concentration dependent inhibitory activities

## O=C(Nc1cccc(Br)c1)Nc1cccc(C2=NCCN2)c1 [MC3_1-10]
YopH secretion
  concentration dependent T3S inhibition (in words): concentration dependent inhibitory activities

## O=C(Nc1cccc(Cl)c1)Nc1cccc(C2=NCCN2)c1 [MC3_1-16]
YopH secretion
  concentration dependent T3S inhibition (in words): concentration dependent inhibitory activities

## FC(F)(F)c1cc(Nc2nc3cc(C4=NCCN4)ccc3o2)ccc1Cl [MC3_3-1]
YopE-B1a secretion; [5]
  inhibition at 60 µM: 69.8%

## FC(F)(F)c1cc(Nc2nc3cc(C4=NCCCN4)ccc3o2)ccc1Cl [MC3_3-2]
YopE-B1a secretion; [5]
  inhibition at 60 µM: 49%

## FC(F)(F)c1cc(Nc2nc3ccc(C4=NCCN4)cc3o2)ccc1Cl [MC3_3-3]
YopE-B1a secretion; [5]
  inhibition at 60 µM: 103%

## FC(F)(F)c1cc(Nc2nc3ccc(C4=NCCN4)cc3[nH]2)ccc1Cl [MC3_3-4]
YopE-B1a secretion; [5]
  inhibition at 60 µM: 0%
